From PubChem BioAssay (NCI)
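Method: 48-hour compound exposure of cells in 96-well plates, five concentrations, linear interpolation of endpoints. Definition used: TGI = concentration required for complete inhibition of growth.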 Where a SMILES comes first, the peptide text is derived from it. [ ]: non-standard residue; d: D form. The star is where a group is joined. mTyr = N[CH](Cc1cccc(O)c1)C(=O)O; Cbz = O=C(OCc1ccccc1)*; OBn = c1ccc(CO*)cc1

Experiments:
Assay in all cases: DTP human tumour cell line panel, 48 h
[1] = system: OVCAR-5 ovarian
[2] = system: ACHN renal
[3] = system: UACC-62 melanoma
[4] = system: RXF 393 renal
[5] = system: HCT-116 colon
[6] = system: SF-268 CNS
[7] = system: MOLT-4 leukemia
[8] = system: HS 578T breast
[9] = system: SNB-75 CNS
[10] = system: SW-620 colon

Compound | TGI [1] [µM] | TGI [2] [µM] | TGI [3] [µM] | TGI [4] [µM] | TGI [5] [µM] | TGI [6] [µM] | TGI [7] [µM] | TGI [8] [µM] | TGI [9] [µM] | TGI [10] [µM]
Brc1ccc(-c2cn3ccncc3n2)cc1 | > 100 | > 100 | > 100 | > 100 | > 100 | > 100 | > 100 | > 100 | > 100 | –
CC(C)C1=CC23CCC4C(C)(C(=O)O)CCCC4(C)C2CC1C1C(=O)N(c2ccc(C(=O)O)cc2)C(=O)C13 (stereo not drawn) | – | > 100 | > 100 | > 100 | > 100 | > 100 | > 100 | > 100 | > 100 | > 100
COc1ccc(C(=O)c2[nH]c(Nc3ccc(Cl)cc3)c(C(=S)Nc3ccccc3)c2N)cc1 | > 100 | > 100 | > 100 | > 100 | > 100 | > 100 | > 100 | > 100 | > 100 | > 100
CCN(c1cccc(NC(=S)Nc2ccccc2N(CC)c2cc(-c3ccccc3)no2)c1)c1cc(-c2ccccc2)no1 | > 100 | > 100 | > 100 | > 100 | > 100 | > 100 | > 100 | > 100 | > 100 | > 100
Cc1ccc(CC(C)N)cc1 (stereo not drawn) | > 100 | > 100 | > 100 | > 100 | > 100 | > 100 | > 100 | – | > 100 | > 100
FC(F)(F)c1ccc2nc(Sc3ccccn3)cnc2c1 | > 100 | 52.9 | 88.3 | 55.5 | > 100 | > 100 | > 100 | > 100 | 96.1 | > 100
CC(C)(C)c1cc(C2COC(c3cc(C(C)(C)C)c(O)c(C(C)(C)C)c3)CO2)cc(C(C)(C)C)c1O (stereo not drawn) | > 100 | > 100 | > 100 | > 100 | > 100 | > 100 | – | > 100 | > 100 | > 100
O=C(Nc1cccc(F)c1)c1cc2ccc(O)cc2oc1=Nc1ccccc1F | 36.1 | 14.2 | 24 | – | 12.9 | 15.4 | 24.7 | 14.1 | – | 45.4
COc1cc(C(c2ccc3c(c2)OCO3)N2C(=O)CCC2C(=O)O)cc(OC)c1OC (stereo not drawn) | > 100 | > 100 | > 100 | – | > 100 | > 100 | > 100 | > 100 | > 100 | > 100
CCOC(=O)[C@H](Cc1ccc(O)cc1)N=C1[C@H]2CCC[C@]1(O)[C@@](C)([N+](=O)[O-])C2 | > 100 | > 100 | > 100 | > 100 | > 100 | – | > 100 | > 100 | – | > 100
C=CCOC(=O)C1C2OC3(C(C(=O)OC)=C2C(=O)OC)c2ccccc2CCC13 (stereo not drawn) | > 10 | > 10 | > 10 | > 10 | > 10 | > 10 | > 10 | > 10 | – | > 10
COC(=O)C(Cc1cccc(O)c1)NC(=O)C(CC(=O)OCc1ccccc1)NC(=O)OCc1ccccc1 (stereo not drawn) (Cbz-Asp(OBn)-[mTyr]-OMe; configuration not given here) | > 100 | > 100 | > 100 | > 100 | > 100 | – | > 100 | > 100 | > 100 | > 100
CN(C)CCCN1c2ccccc2CCc2ccc([N+](=O)[O-])cc21 | > 100 | > 100 | 33.3 | – | > 100 | > 100 | > 100 | > 100 | – | > 100
COc1cc([C@@H]2c3cc(O)c(OC)cc3C=C(C(N)=O)[C@H]2C(N)=O)ccc1O | > 100 | > 100 | – | > 100 | > 100 | > 100 | > 100 | > 100 | > 100 | > 100
COc1cc(/C=C(/C#N)C(N)=O)ccc1O | > 100 | – | > 100 | – | > 100 | > 100 | > 100 | – | > 85.6 | > 100
CC(NC(C)(C)C)C(=O)c1cccc(Cl)c1 (stereo not drawn) | – | > 100 | > 100 | > 100 | > 100 | > 100 | > 100 | – | > 100 | > 100
COC(=O)c1c(O)ccc2c1C1(Cc3ccccc3C1=O)C(O)O2 (stereo not drawn) | 51.7 | 55.7 | – | > 100 | 32.6 | 51.6 | 21.5 | 61 | – | > 100

Compound | TGI [1] [µM] | TGI [2] [µM] | TGI [3] [µM] | TGI [4] [µM] | TGI [5] [µM] | TGI [6] [µM] | TGI [7] [µM] | TGI [8] [µM] | TGI [9] [µM] | TGI [10] [µM]
Cc1n[nH]c(=O)n1/N=C/c1ccc([N+](=O)[O-])o1 | 53.1 | 28.7 | 33.6 | 17.7 | 30.2 | 45.6 | > 100 | – | > 100 | 37.8
O=C(O)CNC(=O)c1c2ccccc2nc2ccccc12 | > 100 | > 100 | > 100 | – | > 100 | > 100 | > 100 | – | > 100 | > 100
COC(=O)c1c(OC(C)=O)ccc2c1c1c(OC(C)=O)c3ccccc3c(OC(C)=O)c1n2Cc1ccccc1 | 19.8 | 47.1 | 20.3 | > 50 | 11.5 | 19.4 | > 50 | > 50 | 6.61 | –
Nc1nc(Cl)c(N)c(NCC2(CO)CC(CCCc3ccccc3)C2)n1 (stereo not drawn) | > 100 | 99.7 | > 100 | – | > 100 | > 55.3 | > 100 | > 100 | 67.7 | > 100
CCOC(=O)CSc1nnc(C(Sc2nc(-c3ccccc3)c(-c3ccccc3)[nH]2)C(C)C)n1-c1ccccc1 (stereo not drawn) | 28.5 | > 31.6 | > 10 | 67.1 | > 31.6 | > 31.6 | 50 | – | > 10 | > 31.6
CCC(c1c[nH]c2ccc(Br)cc12)c1c[nH]c2ccc(Br)cc12 | 16.6 | 12.8 | 22.2 | 7.21 | 15.1 | 20.7 | 4.56 | 27 | – | 19.1
CN(CCCNC(=O)c1nn(-c2ccc(Cl)cc2Cl)c2c1Cc1ccccc1-2)CCCNC(=O)c1nn(-c2ccc(Cl)cc2Cl)c2c1Cc1ccccc1-2 | 2.98 | – | 2.92 | – | 3.15 | – | 3.98 | – | 2.92 | 3.06
c1ccc(CSCCc2ccncc2)cc1 | > 100 | > 100 | > 100 | > 100 | > 100 | > 100 | > 100 | > 100 | – | > 100
O=C(CC(=O)Nc1ccccc1)N/N=C/c1cc(N=Nc2ccc(Br)cc2)ccc1O | – | – | > 10 | – | – | > 10 | > 10 | > 10 | > 10 | > 10
Brc1c(C#CCC2CCCCC2)ccc(C#CCC2CCCCC2)c1Br | > 100 | > 100 | > 100 | > 100 | – | > 100 | > 100 | > 100 | > 100 | > 100
COc1ccc(N=C2C(=Nc3ccc(OC)cc3)N(c3ccccc3)C(=S)N2N=C=C2Sc3ccccc3N2C)cc1 | > 100 | > 100 | > 100 | > 100 | > 100 | > 100 | > 100 | > 100 | – | > 100
Nc1ccc(CCN2CCN(CCCc3ccccc3)CC2)cc1 | > 100 | > 100 | > 100 | – | > 100 | > 100 | > 100 | > 100 | – | > 100
COC(=O)C1=C(OC(=O)c2ccccc2)C(C(=O)OC)[C@]2(O)[C@@H](C(=O)OC)[C@H]1C[C@@H](c1ccccc1)[C@@H]2C(=O)OC (stereo partly drawn) | 73.9 | 72.4 | 60.4 | 19.8 | 14.2 | 36.8 | 23 | 72.2 | – | 40.1
CC1(O)OC(=O)C2=C1CCC1C2CCC2(C)C(O)CCC12 (stereo not drawn) | > 100 | > 100 | > 100 | – | > 100 | > 100 | – | > 100 | – | > 100
Nc1ccc(C(=O)NN2C(=O)C(Cl)C2c2ccccc2)cc1 (stereo not drawn) | > 100 | > 100 | > 100 | – | > 100 | > 100 | > 100 | – | > 100 | > 100
COc1ccc(CSc2ccccc2Cn2cccc2)cc1OC | > 100 | > 100 | > 100 | – | > 100 | > 100 | – | – | > 100 | > 100
CC(C)=C/C=C1/CS(=O)(=O)C=C1C | > 100 | > 100 | > 100 | > 100 | > 100 | – | > 100 | – | > 100 | > 100
